Laboratory results: US6218102A, “Synthetic peptides and mixtures thereof for detecting HIV antibodies” (priority 1988, dated 2001)
Ends that are not written are not given here. Peptide text beside a SMILES is read from it.

Experiments:
[1] = test system: Antibodies to HIV-1; assay: ELISA with peptide or peptide mixture as antigen, identifying HIV-1 positive sera; assay type: binding, human; conditions: Table 3
Protocol: According to this test a peptide or a peptide mixture of the present invention is adsorbed onto the wells of a microtiter plate. The wells are then treated with sera to be tested. After washing, anti-human IgG labeled with peroxidase is added to the wells. The determination of the peroxidase is performed with a corresponding substrate, e.g. with o-phenylene diamine. Also in this procedure the peroxidase can be exchanged by another label, e.g. by a radioactive or fluorescence label.
(§1) Each well of the microtiter plate is saturated with 100 μl of a solution containing a peptide or mixture of peptides (5 μg/ml) and left overnight. The wells are emptied and washed twice with a washing buffer (Tris, 0.043M; NaCl, 0.5M; thimerosal, 0.01% w/v; Tween 20, 0.05% v/v; pH7.4). The wells are then saturated with 0.35 ml of washing buffer for 1 hr. at 37° C. and washed once with the same buffer. Serum samples to be analyzed are diluted with specimen buffer (washing buffer plus casein, 0.05% w/v). The wells are rinsed with washing buffer prior to the addition of the diluted serum sample (0.1 ml). These are left to incubate for 1 hr. at room temperature. The wells are then emptied, washed twice rapidly and then once for two minutes with washing buffer. […] The wells are then emptied and washed twice rapidly with washing buffer and then five times in which the buffer was in contact with the well 2 minutes per washing. The substrate solution (3,3', 5,5'-tetramethylbenzidine, 8 mg per ml of DMSO) is diluted with 100 volumes 0.1M citrate-acetate buffer, pH 5.6 containing 0.1% v/v of 30% H2 O2 and added to each well (0.1 ml per well). After 10 minutes the contents of each well is treated with 0.1 ml 2N H2 SO4 and the optical density read at 450 nm. All determinations are done in duplicate.

[2] = test system: Antibodies to HIV-1; assay: ELISA, relative performance of cyclic and non-cyclic HIV-1 peptides at serum dilutions (optical density); assay type: binding, human
Protocol: Table 4 is provided to illustrate the sensitivity of cyclic versus non cyclic peptides in the ELISA test by comparing the results of some sera at various dilutions.
as §1

[3] = single peptide, known HIV-1 positive sera
[4] = serum specimen 87V103, dilution 1/50
[5] = serum specimen 1428, dilution 1/50
[6] = serum specimen M-5, dilution 1/50
[7] = serum specimen M-5, dilution 1/100
[8] = serum specimen M-5, dilution 1/200
[9] = serum specimen M-5, dilution 1/800
[10] = serum specimen M-7, dilution 1/50
[11] = serum specimen M-7, dilution 1/100
[12] = serum specimen M-7, dilution 1/200
[13] = serum specimen M-7, dilution 1/400
[14] = serum specimen M-7, dilution 1/800
[15] = serum specimen M-8, dilution 1/50
[16] = serum specimen M-8, dilution 1/100
[17] = serum specimen M-8, dilution 1/200
[18] = serum specimen M-8, dilution 1/400
[19] = serum specimen M-8, dilution 1/800
[20] = serum specimen M-16, dilution 1/50
[21] = serum specimen M-16, dilution 1/100
[22] = serum specimen M-16, dilution 1/200
[23] = serum specimen M-16, dilution 1/400
[24] = serum specimen M-16, dilution 1/800
[25] = single p 24 peptide, Free, HIV-1 positive sera
[26] = single p 24 peptide, coupled, HIV-1 positive sera

Compound: CC[C@H](C)[C@@H]1NC(=O)[C@H](CC(C)C)NC(=O)[C@H](CCCCN)NC(=O)CNC(=O)[C@H](CO)NC(=O)[C@@H](NC(=O)CN)CSSC[C@@H](C(=O)N[C@H](C(=O)N[C@H](C(=O)N[C@@H](C)C(=O)N[C@H](C(=O)N2CCC[C@H]2C(=O)N[C@@H](Cc2c[nH]c3ccccc23)C(=O)N[C@@H](CC(N)=O)C(=O)N[C@@H](C)C(=O)N[C@@H](CO)C(=O)O)C(C)C)[C@@H](C)O)[C@@H](C)O)NC1=O [Peptide 80] (HELM PEPTIDE1{G.C.S.G.K.L.I.C.T.T.A.V.P.W.N.A.S}$PEPTIDE1,PEPTIDE1,2:R3-8:R3$$$V2.0)
- % Positive Sera Correctly Identified [1, 3]: 100%
- ELISA optical density [2, 4]: 0.003 OPTICAL DENSITY UNITS
- ELISA optical density [2, 5]: 1.047 OPTICAL DENSITY UNITS
- ELISA optical density [2, 6]: 2.104 OPTICAL DENSITY UNITS
- ELISA optical density [2, 7]: 1.881 OPTICAL DENSITY UNITS
- ELISA optical density [2, 8]: 1.599 OPTICAL DENSITY UNITS
- ELISA optical density [2, 9]: 0.767 OPTICAL DENSITY UNITS
- ELISA optical density [2, 10]: 0.191 OPTICAL DENSITY UNITS
- ELISA optical density [2, 11]: 0.067 OPTICAL DENSITY UNITS
- ELISA optical density [2, 12]: 0.019 OPTICAL DENSITY UNITS
- ELISA optical density [2, 13]: 0.010 OPTICAL DENSITY UNITS
- ELISA optical density [2, 14]: 0.005 OPTICAL DENSITY UNITS
- ELISA optical density [2, 15]: 1.026 OPTICAL DENSITY UNITS
- ELISA optical density [2, 16]: 0.737 OPTICAL DENSITY UNITS
- ELISA optical density [2, 17]: 0.520 OPTICAL DENSITY UNITS
- ELISA optical density [2, 18]: 0.340 OPTICAL DENSITY UNITS
- ELISA optical density [2, 19]: 0.159 OPTICAL DENSITY UNITS
- ELISA optical density [2, 20]: 1.601 OPTICAL DENSITY UNITS
- ELISA optical density [2, 21]: 1.300 OPTICAL DENSITY UNITS
- ELISA optical density [2, 22]: 0.903 OPTICAL DENSITY UNITS
- ELISA optical density [2, 23]: 0.583 OPTICAL DENSITY UNITS
- ELISA optical density [2, 24]: 0.329 OPTICAL DENSITY UNITS

Compound: CC[C@H](C)[C@H](NC(=O)CNC(=O)[C@H](CC(C)C)NC(=O)[C@H](CC(C)C)NC(=O)[C@H](CCC(N)=O)NC(=O)[C@H](CCC(N)=O)NC(=O)[C@H](CC(=O)O)NC(=O)[C@H](CCCCN)NC(=O)[C@H](CC(C)C)NC(=O)[C@H](Cc1ccc(O)cc1)NC(=O)[C@H](CCCNC(=N)N)NC(=O)[C@H](CCC(=O)O)NC(=O)[C@@H](NC(=O)[C@H](C)NC(=O)[C@H](CC(C)C)NC(=O)[C@@H](NC(=O)[C@@H](N)CCCNC(=N)N)[C@@H](C)CC)C(C)C)C(=O)N[C@@H](Cc1c[nH]c2ccccc12)C(=O)NCC(=O)N[C@H]1CSSC[C@@H](C(=O)N[C@H](C(=O)N[C@H](C(=O)N[C@@H](C)C(=O)N[C@H](C(=O)N2CCC[C@H]2C(=O)N[C@@H](Cc2c[nH]c3ccccc23)C(=O)N[C@@H](CC(N)=O)C(=O)N[C@@H](C)C(=O)N[C@@H](CO)C(=O)O)C(C)C)[C@@H](C)O)[C@@H](C)O)NC(=O)[C@H]([C@@H](C)CC)NC(=O)[C@H](CC(C)C)NC(=O)[C@H](CCCCN)NC(=O)CNC(=O)[C@H](CO)NC1=O [Peptide 87c] (HELM PEPTIDE1{R.I.L.A.V.E.R.Y.L.K.D.Q.Q.L.L.G.I.W.G.C.S.G.K.L.I.C.T.T.A.V.P.W.N.A.S}$PEPTIDE1,PEPTIDE1,20:R3-26:R3$$$V2.0)
- % Positive Sera Correctly Identified [1, 3]: 99%
- ELISA optical density [2, 4]: 0.011 OPTICAL DENSITY UNITS
- ELISA optical density [2, 5]: > 2.0 OPTICAL DENSITY UNITS
- ELISA optical density [2, 6]: > 2.0 OPTICAL DENSITY UNITS
- ELISA optical density [2, 7]: > 2.0 OPTICAL DENSITY UNITS
- ELISA optical density [2, 8]: > 2.0 OPTICAL DENSITY UNITS
- ELISA optical density ([2]; serum specimen M-5, dilution 1/400): > 2.0 OPTICAL DENSITY UNITS
- ELISA optical density [2, 9]: 1.854 OPTICAL DENSITY UNITS
- ELISA optical density [2, 10]: > 2.0 OPTICAL DENSITY UNITS
- ELISA optical density [2, 11]: > 2.0 OPTICAL DENSITY UNITS
- ELISA optical density [2, 12]: 1.729 OPTICAL DENSITY UNITS
- ELISA optical density [2, 13]: 1.348 OPTICAL DENSITY UNITS
- ELISA optical density [2, 14]: 0.611 OPTICAL DENSITY UNITS
- ELISA optical density [2, 15]: > 2.0 OPTICAL DENSITY UNITS
- ELISA optical density [2, 16]: > 2.0 OPTICAL DENSITY UNITS
- ELISA optical density [2, 17]: 1.655 OPTICAL DENSITY UNITS
- ELISA optical density [2, 18]: 1.064 OPTICAL DENSITY UNITS
- ELISA optical density [2, 19]: 0.384 OPTICAL DENSITY UNITS
- ELISA optical density [2, 20]: > 2.0 OPTICAL DENSITY UNITS
- ELISA optical density [2, 21]: > 2.0 OPTICAL DENSITY UNITS
- ELISA optical density [2, 22]: > 2.0 OPTICAL DENSITY UNITS
- ELISA optical density [2, 23]: > 2.0 OPTICAL DENSITY UNITS
- ELISA optical density [2, 24]: 1.962 OPTICAL DENSITY UNITS

Compound: CC[C@H](C)[C@H](NC(=O)[C@H](CCC(N)=O)NC(=O)[C@H](CCC(=O)O)NC(=O)[C@H](CC(C)C)NC(=O)[C@H](CO)NC(=O)[C@H](CCCCN)NC(=O)[C@H](CC(N)=O)NC(=O)[C@H](CO)NC(=O)[C@H](Cc1c[nH]c2ccccc12)NC(=O)[C@H](CO)NC(=O)[C@H](C)NC(=O)[C@H](CC(N)=O)NC(=O)[C@H](Cc1c[nH]c2ccccc12)NC(=O)[C@@H]1CCCN1C(=O)[C@@H](NC(=O)[C@H](C)NC(=O)[C@@H](NC(=O)[C@@H](NC(=O)[C@@H]1CSSC[C@H](NC(=O)CN)C(=O)N[C@@H](CO)C(=O)NCC(=O)N[C@@H](CCCCN)C(=O)N[C@@H](CC(C)C)C(=O)N[C@@H]([C@@H](C)CC)C(=O)N1)[C@@H](C)O)[C@@H](C)O)C(C)C)C(=O)O [Peptide 96] (HELM PEPTIDE1{G.C.S.G.K.L.I.C.T.T.A.V.P.W.N.A.S.W.S.N.K.S.L.E.Q.I}$PEPTIDE1,PEPTIDE1,2:R3-8:R3$$$V2.0)
- % Positive Sera Correctly Identified [1, 3]: 100%

Compound: CGKIEPLGVAPTKAKRRVVQREKR [Peptide 71]
- % Positive Sera Correctly Identified [1, 3]: 83%

Compound: CGNNPPIPVGE [Peptide 41, NH2 -CGNNPPIPVGE-COOH]
- % Positive Sera Correctly Identified [1, 25]: 63%
- % Positive Sera Correctly Identified [1, 26]: 73%

Compound: CGRAEQASQEVKN [Peptide 46, NH2 -CGRAEQASQEVKN-COOH]
- % Positive Sera Correctly Identified [1, 25]: 0%
- % Positive Sera Correctly Identified [1, 26]: 93%

Compound: GHACVPTDPNPQEVVL [Peptide 14]
- % Positive Sera Correctly Identified [1, 3]: 50%

Compound: NH2 -CGLGIWGCSGKLICTTAVPWNASWSNKSLEQI-COOH [Peptide 98]
- % Positive Sera Correctly Identified [1, 3]: 100%

Compound: NH2 -CGVERYLKQQLLGIWGCSGKLICTTAVPWNASWSNKSLEQI-COOH [Peptide 99]
- % Positive Sera Correctly Identified [1, 3]: 100%

Compound: NH2 -CGYLKDQQLLGIWGCSGKLICTTAVPWNASWSNKSLEQI-COOH [Peptide 97]
- % Positive Sera Correctly Identified [1, 3]: 100%

Compound: NH2 -FAFAFGCSGKLICTTAVPWNASWSNKSLEQI-COOH [Peptide 91]
- % Positive Sera Correctly Identified [1, 3]: 94%

Compound: NH2 -GCSGKLICTTAVPWNASWSWSNKSLEQI-COOH [Peptide 95]
- % Positive Sera Correctly Identified [1, 3]: 100%

Compound: NH2 -IWGCSGKLICTTAVPWNAS-COOH (H-IWGCSGKLICTTAVPWNAS-OH; cysteine pairing not given here) [Peptide 78, gp 41 602-620]
- % Positive Sera Correctly Identified [1, 3]: 100%

Compound: NH2 -SGKLICTTAVPWNASWSNKSLEQGC-COOH [Peptide 56]
- % Positive Sera Correctly Identified [1, 3]: 100%

Compound: NH2 -VERYLKDQQLLGIWGCSGKLICTTAVPWNAS-COOH (H-VERYLKDQQLLGIWGCSGKLICTTAVPWNAS-OH; cysteine pairing not given here) [Peptide 81, gp 41 590-620]
- % Positive Sera Correctly Identified [1, 3]: 100%

Compound: TKAKRRVVQREKRGAVGIGALFLGFLGAAGSG [Peptide 93]
- % Positive Sera Correctly Identified [1, 3]: 37%

Compound: TTAVPWNASWSNKSLEQGC [Peptide 42]
- % Positive Sera Correctly Identified [1, 3]: 5%
